Measured values taken from US8580918B2, “Peptidic GLP-2 agonists” (Ferring B.V., priority 2009, dated 2013).
Where a SMILES comes first, the peptide text is derived from it. [ ]: non-standard residue; d: D form. The star is where a group is joined. Nle = CCCC[C@H](N)C(=O)O; NHIsopentyl = CC(C)CCN*

Test: Pharmacokinetics in rats after intravenous bolus injection (systemic clearance)
Assay type: in vivo
Conditions: rat, plasma, 0.2 mg FB/kg, adult male Sprague-Dawley rats, i.v. bolus, dose 0.20 mg FB/kg, read-out: CL (ml/kg/min) Average
Method: Pharmacokinetic (PK) parameters of illustrative agonists of the GLP-2 receptor were determined in adult male Sprague-Dawley rats post intravenous bolus injection of compounds at doses of 0.1-1.0 mg/kg. Three or four doubly cannulated animals per compound were dosed via jugular vein, blood samples were collected at several intervals via carotid artery, and plasma samples were prepared from whole blood using K2EDTA as anticoagulant. Subsequent bioanalysis of samples included compound extraction and plasma concentration determination using standard LC/MS/MS methods. Analyte concentration was calculated from internal standard normalized peak area and calibration curves.
For calculation of PK parameters the compound concentration-time curves were analyzed with the noncompartmental data analysis software package PK Solutions 2.0™ (Summit Research Services, Montrose Colo.). The systemic clearance per kg body weight (CL) was calculated as the dose per kg body weight divided by the AUC extrapolated to infinity based on trapezoid calculation (AUC∞). Values reported are the arithmetic mean and standard deviation from the number of animals used for each compound as indicated on Table 3.

| clearance [mL/kg/min] | Structure (SMILES) |
| --- | --- |
| 7.1 | CCCC[C@H](NC(=O)[C@H](CCC(=O)O)NC(=O)[C@H](CC(=O)O)NC(=O)[C@H](CO)NC(=O)[C@H](Cc1ccccc1)NC(=O)[C@H](CO)NC(=O)[C@@H](C)NC(=O)[C@H](CC(=O)O)NC(=O)CNC(=O)[C@@H](N)Cc1cnc[nH]1)C(=O)N[C@@H](CC(N)=O)C(=O)N[C@H](C(=O)N[C@H](C(=O)N[C@@H](CC(C)C)C(=O)N[C@@H](CC(=O)O)C(=O)N[C@@H](CC(N)=O)C(=O)N[C@@H](CC(C)C)C(=O)N[C@@H](C)C(=O)N[C@@H](C)C(=O)N[C@@H](CCCNC(=N)N)C(=O)N[C@@H](CC(=O)O)C(=O)N[C@@H](Cc1ccccc1)C(=O)N[C@H](C(=O)N[C@@H](CC(N)=O)C(=O)N[C@@H](Cc1c[nH]c2ccccc12)C(=O)N[C@@H](CC(C)C)C(=O)N[C@H](C(=O)N[C@@H](CCC(N)=O)C(=O)N[C@H](C(=O)N[C@@H](CCCCN)C(N)=O)[C@@H](C)O)[C@@H](C)CC)[C@@H](C)CC)[C@@H](C)CC)[C@@H](C)O [Compound 1, [Gly2,D-Ala4,Nle10] hGLP-2 (1-30)-NH2] (H-HGD[dA]SFSDE[Nle]NTILDNLAARDFINWLIQTK-NH2) |
| 1.2 | CCCC[C@H](NC(=O)[C@H](CCC(=O)O)NC(=O)[C@H](CC(=O)O)NC(=O)[C@H](CO)NC(=O)[C@H](Cc1ccccc1)NC(=O)[C@H](CO)NC(=O)CNC(=O)[C@H](CC(=O)O)NC(=O)CNC(=O)[C@@H](N)Cc1c[nH]cn1)C(=O)N[C@@H](CC(N)=O)C(=O)N[C@H](C(=O)N[C@H](C(=O)N[C@@H](CC(C)C)C(=O)N[C@@H](CC(=O)O)C(=O)N[C@@H](CC(N)=O)C(=O)N[C@@H](CC(C)C)C(=O)N[C@@H](C)C(=O)N[C@@H](C)C(=O)N[C@@H](CCCNC(=N)N)C(=O)N[C@@H](CC(=O)O)C(=O)N[C@@H](Cc1ccccc1)C(=O)N[C@H](C(=O)N[C@@H](CC(N)=O)C(=O)N[C@@H](Cc1c[nH]c2ccccc12)C(=O)N[C@@H](CC(C)C)C(=O)N[C@H](C(=O)N[C@@H](CCC(N)=O)C(=O)N[C@H](C(=O)N[C@@H](CCCCN)C(=O)NCCC(C)C)[C@@H](C)O)[C@@H](C)CC)[C@@H](C)CC)[C@@H](C)CC)[C@@H](C)O [Compound 5, [Gly2,Nle10] hGLP-2 (1-30)-NH-i-Am] (H-HGDGSFSDE[Nle]NTILDNLAARDFINWLIQTK-NHIsopentyl) |
| 6.3 | CCCC[C@H](NC(=O)[C@H](CCC(=O)O)NC(=O)[C@H](CC(=O)O)NC(=O)[C@H](CO)NC(=O)[C@H](Cc1ccccc1)NC(=O)[C@H](CO)NC(=O)CNC(=O)[C@H](CC(=O)O)NC(=O)CNC(=O)[C@@H](N)Cc1c[nH]cn1)C(=O)N[C@@H](CC(N)=O)C(=O)N[C@H](C(=O)N[C@H](C(=O)N[C@@H](CC(C)C)C(=O)N[C@@H](CC(=O)O)C(=O)N[C@@H](CC(N)=O)C(=O)N[C@@H](CC(C)C)C(=O)N[C@@H](C)C(=O)N[C@@H](C)C(=O)N[C@@H](CCCNC(=N)N)C(=O)N[C@@H](CC(=O)O)C(=O)N[C@@H](Cc1ccccc1)C(=O)N[C@H](C(=O)N[C@@H](CC(N)=O)C(=O)N[C@@H](Cc1c[nH]c2ccccc12)C(=O)N[C@@H](CC(C)C)C(=O)N[C@H](C(=O)N[C@@H](CCC(N)=O)C(=O)N[C@H](C(=O)N[C@@H](CCCCN)C(=O)NCC)[C@@H](C)O)[C@@H](C)CC)[C@@H](C)CC)[C@@H](C)CC)[C@@H](C)O [Compound 6, [Gly2,Nle10] hGLP-2 (1-30)-NH—Et] (H-HGDGSFSDE[Nle]NTILDNLAARDFINWLIQTK-NHEt) |
| 0.84 | CCCC[C@H](NC(=O)[C@H](CCC(=O)O)NC(=O)[C@H](CC(=O)O)NC(=O)[C@H](CO)NC(=O)[C@H](Cc1ccccc1)NC(=O)[C@H](CO)NC(=O)CNC(=O)[C@H](CC(=O)O)NC(=O)CNC(=O)[C@@H](N)Cc1c[nH]cn1)C(=O)N[C@@H](CC(N)=O)C(=O)N[C@H](C(=O)N[C@H](C(=O)N[C@@H](CC(C)C)C(=O)N[C@@H](CC(=O)O)C(=O)N[C@@H](CC(C)C)C(=O)N[C@@H](CC(C)C)C(=O)N[C@@H](C)C(=O)N[C@@H](C)C(=O)N[C@@H](CCCNC(=N)N)C(=O)N[C@@H](CC(=O)O)C(=O)N[C@@H](Cc1ccccc1)C(=O)N[C@H](C(=O)N[C@@H](CC(N)=O)C(=O)N[C@@H](Cc1c[nH]c2ccccc12)C(=O)N[C@@H](CC(C)C)C(=O)N[C@H](C(=O)N[C@@H](CCC(N)=O)C(=O)N[C@H](C(=O)N[C@@H](CCCCN)C(N)=O)[C@@H](C)O)[C@@H](C)CC)[C@@H](C)CC)[C@@H](C)CC)[C@@H](C)O [Compound 11, [Gly2,Nle10,Leu16] hGLP-2 (1-30)-NH2] (H-HGDGSFSDE[Nle]NTILDLLAARDFINWLIQTK-NH2) |
| 1.2 | CCCC[C@H](NC(=O)[C@H](CCC(=O)O)NC(=O)[C@H](CC(=O)O)NC(=O)[C@H](CO)NC(=O)[C@H](Cc1ccccc1)NC(=O)[C@H](CO)NC(=O)CNC(=O)[C@H](CC(=O)O)NC(=O)CNC(=O)[C@@H](N)Cc1cnc[nH]1)C(=O)N[C@H](Cc1ccccc1)C(=O)N[C@H](C(=O)N[C@H](C(=O)N[C@@H](CC(C)C)C(=O)N[C@@H](CC(=O)O)C(=O)N[C@@H](CC(N)=O)C(=O)N[C@@H](CC(C)C)C(=O)N[C@@H](C)C(=O)N[C@@H](C)C(=O)N[C@@H](CCCNC(=N)N)C(=O)N[C@@H](CC(=O)O)C(=O)N[C@@H](Cc1ccccc1)C(=O)N[C@H](C(=O)N[C@@H](CC(N)=O)C(=O)N[C@@H](Cc1c[nH]c2ccccc12)C(=O)N[C@@H](CC(C)C)C(=O)N[C@H](C(=O)N[C@@H](CCC(N)=O)C(=O)N[C@H](C(=O)N[C@@H](CCCCN)C(N)=O)[C@@H](C)O)[C@@H](C)CC)[C@@H](C)CC)[C@@H](C)CC)[C@@H](C)O [Compound 13, [Gly2,Nle10,D-Phe11] hGLP-2 (1-30)-NH2] (H-HGDGSFSDE[Nle][dF]TILDNLAARDFINWLIQTK-NH2) |

Same assay, conditions: rat, plasma, adult male Sprague-Dawley rats, i.v. bolus, dose 0.18 mg FB/kg, read-out: CL (ml/kg/min) Average

| clearance [mL/kg/min] | Structure (SMILES) |
| --- | --- |
| 1.5 | CCCC[C@H](NC(=O)[C@H](CCC(=O)O)NC(=O)[C@H](CC(=O)O)NC(=O)[C@H](CO)NC(=O)[C@H](Cc1ccccc1)NC(=O)[C@H](CO)NC(=O)CNC(=O)[C@H](CC(=O)O)NC(=O)CNC(=O)[C@@H](N)Cc1c[nH]cn1)C(=O)N[C@@H](CC(N)=O)C(=O)N[C@H](C(=O)N[C@H](C(=O)N[C@@H](CC(C)C)C(=O)N[C@@H](CC(=O)O)C(=O)N[C@@H](CC(N)=O)C(=O)N[C@@H](CC(C)C)C(=O)N[C@@H](C)C(=O)N[C@@H](C)C(=O)N[C@@H](CCCNC(=N)N)C(=O)N[C@@H](CC(=O)O)C(=O)N[C@@H](Cc1ccccc1)C(=O)N[C@H](C(=O)N[C@@H](CC(N)=O)C(=O)N[C@@H](Cc1c[nH]c2ccccc12)C(=O)N[C@@H](CC(C)C)C(=O)N[C@H](C(=O)N[C@@H](CCCNC(=N)N)C(=O)N[C@H](C(=O)N[C@@H](CCCCN)C(=O)NCCC(C)C)[C@@H](C)O)[C@@H](C)CC)[C@@H](C)CC)[C@@H](C)CC)[C@@H](C)O [Compound 10, [Gly2,Nle10,Arg28] hGLP-2 (1-30)-NH-i-Am] (H-HGDGSFSDE[Nle]NTILDNLAARDFINWLIRTK-NHIsopentyl) |
